From patent US20070128217A1 (priority 2003, published 2007)

Tests used:
[1] = tested on: rabbit serum obtained by immunizing a rabbit with the SARS-CoV strain Frankfurt 1; type: binding; set-up: Binding of a rabbit serum to linear peptides / Binding of a rabbit serum to looped peptides / Rabbit serum linear peptides / Rabbit serum looped peptides / Binding of a rabbit serum to linear peptides of protein N of SARS-CoV Urbani (Rabbit serum linear peptides) / Binding of a rabbit serum to looped/cyclic peptides of protein N of SARS-CoV Urbani (Rabbit serum looped peptides): unit not given here
[2] = tested on: control sera (pooled serum of ten healthy LUMC hospital workers; commercial negative donor pooled serum from the Dutch bloodbank); type: binding, human; set-up: Binding of Control serum LUMC to linear peptides / Binding of Control serum Blood-bank to linear peptides / Binding of Control serum LUMC to looped peptides / Binding of Control Serum Blood-Bank to Looped peptides / Binding of Control serum LUMC to linear peptides of the protein M of SARS-CoV Urbani / Binding of Control serum Blood-bank to linear peptides of the protein M of SARS-CoV Urbani / Binding of Control serum LUMC to looped peptides of the protein M of SARS-CoV Urbani / Binding of Control Serum Blood-Bank to Looped peptides of the protein M of SARS-CoV Urbani: unit not given here
[3] = tested on: antibodies in sera from SARS patients (sera 1a, 1b, 2, 6, 37, 62, London, SARS-yellow, SARS-green); type: binding, human; set-up: Binding of serum 6 to linear peptides of protein X1 of SARS-CoV Urbani / Binding of serum 37 to linear peptides of protein X1 of SARS-CoV Urbani / Binding of serum 6 to looped/cyclic peptide (PEPSCAN-ELISA) / Binding of serum 37 to looped/cyclic peptide (PEPSCAN-ELISA) / Binding of serum 37 to looped/cyclic peptides of protein X1 of SARS-CoV Urbani / Binding of serum 6 to linear peptides of protein X2 / Binding of serum 37 to linear peptides of protein X2 / Binding of serum 37 to looped/cyclic peptides of protein X2 of SARS-CoV Urbani / Binding of serum 6 to linear peptides of protein M of SARS-CoV Urbani / Binding of serum 37 to linear peptides of protein M of SARS-CoV Urbani / Binding of serum 6 to looped/cyclic peptides of protein M of SARS-CoV Urbani / Binding of serum 37 to looped/cyclic peptides of protein M of SARS-CoV Urbani / Binding of serum 6 to linear peptides of protein X3 of SARS-CoV Urbani / Binding of serum 37 to linear peptides of protein X3 of SARS-CoV Urbani / Binding of serum 37 to looped/cyclic peptides of protein X3 of SARS-CoV Urbani / Binding of serum 6 to linear peptides of protein X4 of SARS-CoV Urbani / Binding of serum 37 to linear peptides of protein X4 of SARS-CoV Urbani / Binding of serum 37 to looped/cyclic peptides of protein X4 of SARS-CoV Urbani / Binding of serum 6 to linear peptides of protein X5 of SARS-CoV Urbani / Binding of serum 37 to linear peptides of protein X5 of SARS-CoV Urbani / Binding of serum 37 to looped/cyclic peptides of protein X5 of SARS-CoV Urbani / Binding of serum 6 to linear peptides of protein N of SARS-CoV Urbani / Binding of serum 37 to linear peptides of protein N of SARS-CoV Urbani / Binding of serum 6 to linear peptide (PEPSCAN-ELISA) / Binding of serum 1a to looped/cyclic peptides of protein N of SARS-CoV Urbani / Binding of serum 1b to looped/cyclic peptides of protein N of SARS-CoV Urbani / Binding of serum 2 to looped/cyclic peptides of protein N of SARS-CoV Urbani / Binding of serum 6 to looped/cyclic peptides of protein N of SARS-CoV Urbani / Binding of serum 37 to looped/cyclic peptides of protein N of SARS-CoV Urbani / Binding of serum 62 to looped/cyclic peptides of protein N of SARS-CoV Urbani / Binding of serum London to looped/cyclic peptides of protein N of SARS-CoV Urbani / Binding of serum SARS-green to looped/cyclic peptides of protein N of SARS-CoV Urbani: unit not given here
[4] = tested on: recombinant human anti-SARS-CoV antibody 03-018; type: binding; set-up: Binding of antibody 03-018 to linear peptides of the N protein of SARS-CoV Urbani / Binding of antibody 03-018 to looped/cyclic peptides of the N protein of SARS-CoV Urbani: unit not given here

| Sequence | Binding of a rabbit serum to linear peptides of protein N of SARS-CoV Urbani (Rabbit serum linear peptides) [1] | Binding of a rabbit serum to looped/cyclic peptides of protein N of SARS-CoV Urbani (Rabbit serum looped peptides) [1] | Binding of serum 1a to linear peptides of protein N of SARS-CoV Urbani [3] | Binding of serum 1a to looped/cyclic peptides of protein N of SARS-CoV Urbani [3] | Binding of serum 1b to linear peptides of protein N of SARS-CoV Urbani [3] | Binding of serum 1b to looped/cyclic peptides of protein N of SARS-CoV Urbani [3] | Binding of serum 2 to linear peptides of protein N of SARS-CoV Urbani [3] | Binding of serum 2 to looped/cyclic peptides of protein N of SARS-CoV Urbani [3] | Binding of serum 6 to linear peptides of protein N of SARS-CoV Urbani [3] | Binding of serum 6 to looped/cyclic peptides of protein N of SARS-CoV Urbani [3] | Binding of serum 37 to linear peptides of protein N of SARS-CoV Urbani [3] | Binding of serum 37 to looped/cyclic peptides of protein N of SARS-CoV Urbani [3] | Binding of serum 62 to linear peptides of protein N of SARS-CoV Urbani [3] | Binding of serum 62 to looped/cyclic peptides of protein N of SARS-CoV Urbani [3] | Binding of serum London to linear peptides of protein N of SARS-CoV Urbani [3] | Binding of serum London to looped/cyclic peptides of protein N of SARS-CoV Urbani [3] | Binding of serum SARS-green to looped/cyclic peptides of protein N of SARS-CoV Urbani [3] | Binding of serum SARS-yellow to looped/cyclic peptides of protein N of SARS-CoV Urbani [3] | Binding of antibody 03-018 to linear peptides of the N protein of SARS-CoV Urbani [4] | Binding of antibody 03-018 to looped/cyclic peptides of the N protein of SARS-CoV Urbani [4] | also measured |
| --- | --- | --- | --- | --- | --- | --- | --- | --- | --- | --- | --- | --- | --- | --- | --- | --- | --- | --- | --- | --- | --- |
| TVTLLPAADMDDFSR | 0.1 | 0.3 | 0.2 | 0.3 | 0.1 | 0.2 | 0.1 | 0.2 | 0.2 | 0.0 | 0.7 | 0.4 | 0.5 | 0.1 | 0.5 | 0.2 | 0.5 | 0.2 | 0.1 | 0.2 | Control Serum Blood-Bank Looped peptides [2]: 0.3; Control serum Blood-bank linear peptides [2]: 0.6; Control serum LUMC linear peptides [2]: 0.6; Control serum LUMC looped peptides [2]: 0.3; Binding of serum SARS-green to linear peptides of protein N of SARS-CoV Urbani [3]: 0.3; Binding of serum SARS-yellow to linear peptides of protein N of SARS-CoV Urbani [3]: 0.5 |
| TWLTYHGAIKLDDKD | 0.1 | 0.3 | 0.2 | 0.2 | 0.1 | 0.2 | 0.1 | 0.2 | 0.2 | 0.1 | 0.6 | 0.4 | 0.6 | 0.3 | 0.5 | 0.2 | 0.3 | 0.3 | 0.1 | 0.2 | Control Serum Blood-Bank Looped peptides [2]: 0.4; Control serum Blood-bank linear peptides [2]: 0.6; Control serum LUMC linear peptides [2]: 0.6; Control serum LUMC looped peptides [2]: 0.4; Binding of serum SARS-green to linear peptides of protein N of SARS-CoV Urbani [3]: 0.3; Binding of serum SARS-yellow to linear peptides of protein N of SARS-CoV Urbani [3]: 0.6 |
| VRGGDGKMKELSPRW | 0.2 | 0.4 | 0.2 | 0.3 | 0.1 | 0.2 | 0.2 | 0.5 | 0.2 | 0.2 | 0.6 | 0.6 | 0.6 | 0.6 | 0.4 | 0.5 | 0.1 | 0.3 | 0.1 | 0.2 | Binding of Control Serum Blood-Bank to Looped peptides [2]: 0.7; Binding of Control serum Blood-bank to linear peptides [2]: 0.6; Binding of Control serum LUMC to linear peptides [2]: 0.8; Binding of Control serum LUMC to looped peptides [2]: 0.7; Binding of serum SARS-green to linear peptides of protein N of SARS-CoV Urbani [3]: 0.4; Binding of serum SARS-yellow to linear peptides of protein N of SARS-CoV Urbani [3]: 0.7 |
| VTKKSAAEASKKPRQ | 0.1 | 0.6 | – | 0.3 | – | 0.2 | – | 0.6 | – | 0.3 | – | 0.6 | – | 0.4 | – | 0.5 | 0.6 | 0.7 | 0.1 | 0.2 | Binding of Control Serum Blood-Bank to Looped peptides [2]: 0.6; Binding of Control serum Blood-bank to linear peptides [2]: 0.9; Binding of Control serum LUMC to linear peptides [2]: 0.9; Binding of Control serum LUMC to looped peptides [2]: 0.7; Recognition of the peptide by sera of SARS-CoV infected individuals, and form (linear, looped/cyclic) in which it is recognized [3]: recognized in linear form |
| WYFYYLGTGPEASLP | 0.1 | 0.3 | 0.3 | 0.4 | 0.2 | 0.3 | 0.3 | 0.4 | 0.2 | 0.3 | 0.9 | 0.7 | 0.8 | 0.5 | 0.5 | 0.4 | 0.4 | 0.5 | 0.1 | 0.2 | Binding of Control Serum Blood-Bank to Looped peptides [2]: 0.6; Binding of Control serum Blood-bank to linear peptides [2]: 0.7; Binding of Control serum LUMC to linear peptides [2]: 0.6; Binding of Control serum LUMC to looped peptides [2]: 0.6; Binding of serum SARS-green to linear peptides of protein N of SARS-CoV Urbani [3]: 0.3; Binding of serum SARS-yellow to linear peptides of protein N of SARS-CoV Urbani [3]: 0.7 |
